Laboratory results reported in patent US4076814A, “Preventive and curative compositions against mycoplasmosis” (Sankyo Company Limited, priority 1975, dated 1978).
In brackets after ≈: the same amount, converted by molar mass.

Tests used:
Type in all cases: cell-based
Mycoplasma pulmonis = assay: Antimicrobial test, conventional agar plate dilution method, Mycoplasma pulmonis; conditions: Mycoplasma, read-out: Minimum Inhibitory Concentration, Mycoplasma pulmonis
Source text: (§1) ANTIMICROBIAL TEST AGAINST THREE STRAINS OF MYCOPLASMA
(§2) The test was effected by a conventional agar plate dilution method using the indicated strains of mycoplasma. The dithiocarbamic acid derivatives as shown below with Compound Nos. were employed in the test.

Mycoplasma hyorhinis = assay: Antimicrobial test, conventional agar plate dilution method, Mycoplasma hyorhinis; conditions: Mycoplasma, read-out: Minimum Inhibitory Concentration, Mycoplasma hyorhinis
Source text: as §1, §2

Mycoplasma gallisepticum = assay: Antimicrobial test, conventional agar plate dilution method, Mycoplasma gallisepticum; conditions: Mycoplasmoides gallisepticum, read-out: Minimum Inhibitory Concentration, Mycoplasma gallisepticum
Source text: as §1, §2

Compound	MIC (Mycoplasma pulmonis) [µg/mL]	MIC (Mycoplasma hyorhinis) [µg/mL]	MIC (Mycoplasma gallisepticum) [µg/mL]
CN(C)C(=S)SCC1CCCC1=O (stereo not drawn) [Compound No. 1, 2-Oxocyclopentylmethyl dimethyldithiocarbamate]	0.05 (≈ 0.23 µM)	0.05 (≈ 0.23 µM)	0.05 (≈ 0.23 µM)
CCN(CC)C(=S)SCC1CCCC1=O (stereo not drawn) [Compound No. 2, 2-Oxocyclopentylmethyl diethyldithiocarbamate]	0.1 (≈ 0.407 µM)	0.1 (≈ 0.407 µM)	0.1 (≈ 0.407 µM)
O=C1CCCCC1CSC(=S)N1CCCCC1 (stereo not drawn) [Compound No. 9, 2-Oxocyclohexylmethyl 1-piperidinecarbodithioate]	0.39 (≈ 1.44 µM)	0.2 (≈ 0.737 µM)	0.2 (≈ 0.737 µM)
CC(=O)CCSC(=S)N1CCN(C)CC1 [Compound No. 92, 2-Acetylethyl 4-methyl-1-piperazinecarbodithioate]	0.2 (≈ 0.812 µM)	0.025 (≈ 0.101 µM)	0.2 (≈ 0.812 µM)
CC(=O)C(C)CSC(=S)N(C)C (stereo not drawn) [Compound No. 147, 2-Acetylpropyl dimethyldithiocarbamate]	0.05 (≈ 0.243 µM)	0.05 (≈ 0.243 µM)	0.05 (≈ 0.243 µM)
CCN(CC)C(=S)SCc1cc(C)c(O)cc1C(C)C [Compound No. 202, 4-Hydroxy-2-isopropyl-5-methylbenzyl diethyldithyldithiocarbamate]	0.1 (≈ 0.321 µM)	0.1 (≈ 0.321 µM)	0.1 (≈ 0.321 µM)
O=C1CCCC1CSC(=S)N1CCOCC1 (stereo not drawn) [compound 3, 2-Oxocyclopentylmethyl 4-morpholinecarbodithioate]	0.1 (≈ 0.386 µM)	0.2 (≈ 0.771 µM)	0.2 (≈ 0.771 µM)
CN(C)C(=S)SCC1CCCCC1=O (stereo not drawn) [compound 5, 2-Oxocyclohexylmethyl dimethyldithiocarbamate]	0.1 (≈ 0.432 µM)	0.05 (≈ 0.216 µM)	0.05 (≈ 0.216 µM)
CCN(CC)C(=S)SCC1CCCCC1=O (stereo not drawn) [compound 6, 2-Oxocyclohexylmethyl diethyldithiocarbamate]	0.1 (≈ 0.385 µM)	0.05 (≈ 0.193 µM)	0.1 (≈ 0.385 µM)
CCCCN(C)C(=S)SCC1CCCCC1=O (stereo not drawn) [compound 7, 2-Oxocyclohexylmethyl n-butylmethyldithiocarbamate]	0.2 (≈ 0.731 µM)	0.2 (≈ 0.731 µM)	0.2 (≈ 0.731 µM)
O=C(CCSC(=S)N1CCOCC1)c1ccccc1O [compound 42, 2-(o-Hydroxybenzoyl)ethyl 4-morpholinecarbodithioate]	0.2 (≈ 0.642 µM)	0.39 (≈ 1.25 µM)	0.2 (≈ 0.642 µM)
O=C(CCSC(=S)N1CCOCC1)c1ccccc1[N+](=O)[O-] [compound 61, 2-(o-Nitrobenzoyl)ethyl 4-morpholinecarbodithioate]	0.39 (≈ 1.15 µM)	1.56 (≈ 4.58 µM)	0.1 (≈ 0.294 µM)
CCCCN(C)C(=S)SCCC(C)=O [compound 80, 2-Acethylethyl butylmethyldithiocarbamate]	0.1 (≈ 0.428 µM)	0.1 (≈ 0.428 µM)	0.1 (≈ 0.428 µM)
CC(=O)CCSC(=S)N(C)C1CCCCC1 [compound 81, 2-Acetylethyl cyclohexylmethyldithiocarbamate]	0.2 (≈ 0.771 µM)	0.2 (≈ 0.771 µM)	0.2 (≈ 0.771 µM)
CC(=O)CCSC(=S)N1CCCCCC1 [compound 89, 2-Acetylethyl 1-hexamethyleneiminecarbodithioate]	0.1 (≈ 0.407 µM)	0.1 (≈ 0.407 µM)	0.2 (≈ 0.815 µM)
CC(=O)CCSC(=S)N1CCOCC1 [compound 91, 2-Acetylethyl 4-morpholinecarbodithioate]	0.2 (≈ 0.857 µM)	0.025 (≈ 0.107 µM)	0.2 (≈ 0.857 µM)
CC(=O)CCSC(=S)N1CCN(C)CC1.Cl [compound 93, 2-Acetylethyl 4-methyl-1-piperazinecarbodithioate hydrochloride]	0.1	0.05	0.1
CCC(=O)CCSC(=S)N1CCOCC1 [compound 101, 2-Propionylethyl 4-morphonlinecarbodithioate]	0.1 (≈ 0.404 µM)	0.1 (≈ 0.404 µM)	0.1 (≈ 0.404 µM)

Further lines, results first:

MIC (Mycoplasma pulmonis) [µg/mL]	MIC (Mycoplasma hyorhinis) [µg/mL]	MIC (Mycoplasma gallisepticum) [µg/mL]	Compound
0.025 (≈ 0.0987 µM)	0.05 (≈ 0.197 µM)	0.05 (≈ 0.197 µM)	CN(C)C(=S)SCCC(=O)c1ccccc1 [compound 23, 2-Benzoylethyl dimethyldithiocarbamate]
0.2 (≈ 0.682 µM)	0.2 (≈ 0.682 µM)	0.2 (≈ 0.682 µM)	O=C(CCSC(=S)N1CCCCC1)c1ccccc1 [compound 30, 2-Benzoylethyl 1-piperidinecarbodithioate]
0.2 (≈ 0.65 µM)	0.2 (≈ 0.65 µM)	0.2 (≈ 0.65 µM)	O=C(CCSC(=S)N1CCCCCC1)c1ccccc1 [compound 31, 2-Benzoylethyl 1-hexamethyleneiminecarbodithioate]
0.05	0.05	0.05	CN1CCN(C(=S)SCCC(=O)c2ccccc2)CC1.Cl [compound 34, 2-Benzoylethyl 4-methyl-1-piperazinecarbodithioate hydrochloride]
0.39 (≈ 1.46 µM)	0.2 (≈ 0.748 µM)	0.2 (≈ 0.748 µM)	Cc1ccc(C(=O)CCSC(=S)N(C)C)cc1 [compound 55, 2-(p-Toluoyl)ethyl dimethyldithiocarbamate]
0.1 (≈ 0.374 µM)	0.05 (≈ 0.187 µM)	0.1 (≈ 0.374 µM)	Cc1cccc(C(=O)CCSC(=S)N(C)C)c1 [compound 56, 2-(m-Toluoyl)ethyl dimethyldithiocarbamate]
0.2 (≈ 0.748 µM)	0.1 (≈ 0.374 µM)	0.1 (≈ 0.374 µM)	Cc1ccccc1C(=O)CCSC(=S)N(C)C [compound 57, 2-(o-Toluoyl)ethyl dimethyldithiocarbamate]
0.1 (≈ 0.393 µM)	0.1 (≈ 0.393 µM)	0.1 (≈ 0.393 µM)	CN(C)C(=S)SCCC(=O)c1cccnc1 [compound 69]
0.05 (≈ 0.261 µM)	0.025 (≈ 0.131 µM)	0.05 (≈ 0.261 µM)	CC(=O)CCSC(=S)N(C)C [compound 78, 2-Acetylethyl dimethyldithiocarbamate]
0.2 (≈ 0.748 µM)	0.2 (≈ 0.748 µM)	0.2 (≈ 0.748 µM)	CC(=O)CCSC(=S)N(C)Cc1ccccc1 [compound 82, 2-Acetylethyl benzylmethyldithiocarbamate]
0.05 (≈ 0.214 µM)	0.05 (≈ 0.214 µM)	0.05 (≈ 0.214 µM)	CCC(=O)CCSC(=S)N(CC)CC [compound 99, 2-Propionylethyl diethyldithiocarbamate]
0.2 (≈ 0.912 µM)	0.2 (≈ 0.912 µM)	0.2 (≈ 0.912 µM)	CC(C)C(=O)CCSC(=S)N(C)C [compound 104, 2-Isobutyrylethyl dimethyldithiocarbamate]
0.2 (≈ 0.857 µM)	0.2 (≈ 0.857 µM)	0.2 (≈ 0.857 µM)	CN(C)C(=S)SCCC(=O)C(C)(C)C [compound 108, 2-Pivaroylethyl dimethyldithiocarbamate]
0.2 (≈ 0.711 µM)	0.2 (≈ 0.711 µM)	0.2 (≈ 0.711 µM)	CN(C)C(=S)SCCC(=O)CCc1ccccc1 [compound 123, 2-Hydrocinnamoylethyl dimethyldithiocarbamate]
0.2 (≈ 0.614 µM)	0.2 (≈ 0.614 µM)	0.2 (≈ 0.614 µM)	CCN(CC)C(=S)SCCC(=O)CCc1ccccc1O [compound 125, 2-(o-Hydroxyhydrocinnamoyl)ethyl diethyldithiocarbamate]
0.2 (≈ 0.589 µM)	0.2 (≈ 0.589 µM)	0.2 (≈ 0.589 µM)	CCN(CC)C(=S)SCCC(=O)CCc1ccc(OC)cc1 [compound 129, 2-(p-Methoxyhydrocinnamoyl)ethyl diethyldithiocarbamate]
0.2 (≈ 0.716 µM)	0.2 (≈ 0.716 µM)	0.2 (≈ 0.716 µM)	CN(C)C(=S)SCCC(=O)C=Cc1ccccc1 [compound 134, 2-Cinnamoylethyl dimethyldithiocarbamate]
0.2 (≈ 0.65 µM)	0.2 (≈ 0.65 µM)	0.2 (≈ 0.65 µM)	CCN(CC)C(=S)SCCC(=O)C=Cc1ccccc1 [compound 135, 2-Cinnamoylethyl diethyldithiocarbamate]
